{"source": "patent US9820954B2", "about": "“Quantitative peri-orbital application of ophthalmology drugs” (JENIVISION INC., priority 2015, dated 2017)", "key": {"Cynomolgus monkeys [1]": {"tested_on": "Cynomolgus monkeys", "test": "Intraocular pressure after periorbital roller-ball application in Cynomolgus monkeys", "format": "in vivo, Cynomolgus monkey", "parameters": "Ocular Pressure (Left Eye), Mean: unit not given beside the values", "details": "for Ocular Pressure (Left Eye), Mean: treated left eye, n=6", "protocol": "Day 1; 8 Cynomolgus monkeys, which are the favored animal model for glaucoma studies, were assigned to the study. Intraocular pressure was measured in both eyes. The 6 animals with the highest intraocular pressure were selected for study.\n(§1) Day 2 Intraocular pressure was measured in both eyes of the 6 selected animals. Before dosing the monkeys, the delivery of vehicle (Polyethylene glycol 400) and the compound (3-[(3′-fluoro-4-fluorobiphenyl-3-carbonyl) amino] phenoxyacetic acid isopropyl ester from the roller-ball applicator bottle was checked by rolling it along a solid surface (e.g. glass or plastic) until the liquid flowed freely from the roller-ball. The formulation of (3-[(3′-fluoro-4-fluorobiphenyl-3-carbonyl) amino] phenoxyacetic acid isopropyl ester was applied immediately afterwards by rolling the roller-ball slowly around the skin surrounding the left eye socket of each monkey. The roller-ball was rolled around this area 5 times for each monkey. The same drug application procedure was performed for the vehicle (Polyethylene glycol 400) to the right eye socket of each monkey. Intraocular pressure was measured in both eyes at 3 hours post-drug and vehicle application and again at 5 hours post-drug and vehicle application. The conjunctivae of both eyes were checked for redness at the end of the daily experimental period.\nDay 3; Repeat the operation of Day 2.\nDay 4; Repeat the operation of Day 2.\nDay 5; Repeat the operation of Day 2.\nDays 6 and 7, no drug administered.\n(§2) Day 8; Intraocular pressure was measured in both eyes and the conjunctivae were checked for redness/hyperemia.\n(§3) Day 15; Intraocular pressure in was measured in both eyes and the conjunctivae were checked for redness/hyperemia.\nThis is very unusual as most IOP lowering drugs are administered daily in order to continuously lower IOP."}, "Cynomolgus monkeys [2]": {"tested_on": "Cynomolgus monkeys", "test": "Ocular surface hyperemia assessment (conjunctival congestion) in Cynomolgus monkeys", "format": "in vivo, Cynomolgus monkey", "parameters": "key to Conjunctival Congestion, hyperemia score: 0: Normal Appearance; 0.5: Very Slight Redness or Dilation of Conjunctival Vessels; 1: More Obvious Redness or Dilation of Conjunctival Vessels; 2: Whole Conjunctiva Exhibiting Pronounced Red Coloration. Visual Clarification of Individual Conjunctival Vessels Difficult.; 3: Whole Conjunctiva Exhibiting Pronounced Red Coloration. Visual Clarification of Individual Iridial Vessels Impossible. Accompany Conjunctival Edema", "details": "for Conjunctival Congestion, hyperemia score: left eyes, one value per animal", "protocol": "as §1, §2, §3"}, "patient [3]": {"tested_on": "patient", "test": "Periorbital application in a patient with bacterial conjunctivitis (patient example)", "format": "in vivo, human", "details": "Example VIII: 0.3% w/w cream (Composition 3, Table II), periorbital skin of the right eye daily", "description": "A pediatric patient suffers from bacterial conjunctivitis in their right eye."}, "patient [4]": {"tested_on": "patient", "test": "Periorbital application for ocular pain/inflammation after cataract surgery (patient example)", "format": "in vivo, human", "details": "Example IX: 0.1% w/v solution (formula 5, table 1) once a day for five days, periorbital skin of both eyes", "description": "A person is suffering from ocular/pain inflammation after cataract surgery."}}, "note": "Where “and” joins values, the source holds several entries; their conditions need not be identical. Identical values can stand only once.", "data": [{"smiles": "CC(C)OC(=O)COc1cccc(NC(=O)c2cc(-c3cccc(F)c3)ccc2F)c1", "note": "[3-[(3′-fluoro-4-fluorobiphenyl-3-carbonyl)amino] phenoxyacetic acid isopropyl ester]", "values": [{"measurement": "reductions in intraocular pressure (Table III and FIG. 2)", "setting": "Cynomolgus monkeys [1]; Cynomolgus monkeys, periorbital application, versus normal baseline", "value": "Statistically significant reductions"}, {"measurement": "Ocular Pressure (Left Eye), Mean", "setting": "Cynomolgus monkeys [1]; Day 2-3 hr post, in Polyethylene glycol 400, dosed Days 2-5, baseline Day 1 17.8 / 18.3", "value": 18.0}, {"measurement": "Ocular Pressure (Left Eye), Mean", "setting": "Cynomolgus monkeys [1]; Day 2-5 hr post, baseline Day 1 17.8 / 18.3", "value": 17.8}, {"measurement": "Ocular Pressure (Left Eye), Mean", "setting": "Cynomolgus monkeys [1]; Day 3-3 hr post", "value": 12.2}, {"measurement": "Ocular Pressure (Left Eye), Mean", "setting": "Cynomolgus monkeys [1]; Day 3-5 hr post", "value": 12.3}, {"measurement": "Ocular Pressure (Left Eye), Mean", "setting": "Cynomolgus monkeys [1]; Day 4-3 hr post", "value": 10.9}, {"measurement": "Ocular Pressure (Left Eye), Mean", "setting": "Cynomolgus monkeys [1]; Day 4-5 hr post", "value": 10.6}, {"measurement": "Ocular Pressure (Left Eye), Mean", "setting": "Cynomolgus monkeys [1]; Day 5-3 hr post", "value": 8.4}, {"measurement": "Ocular Pressure (Left Eye), Mean", "setting": "Cynomolgus monkeys [1]; Day 5-5 hr post", "value": 9.1}, {"measurement": "Ocular Pressure (Left Eye), Mean", "setting": "Cynomolgus monkeys [1]; Day 8-8:00am, no drug after Day 5", "value": 8.5}, {"measurement": "Ocular Pressure (Left Eye), Mean", "setting": "Cynomolgus monkeys [1]; Day 15-8:00, no drug after Day 5", "value": 17.4}, {"measurement": "IOP lowering (FIG. 2)", "setting": "Cynomolgus monkeys [1]; after five doses", "value": "long term IOP lowering"}, {"measurement": "duration of IOP lowering", "setting": "Cynomolgus monkeys [1]; periorbital skin, single administration and/or after a series of single administrations", "value": "7 to 14", "unit": "days"}, {"measurement": "Conjunctival Congestion, hyperemia score", "setting": "Cynomolgus monkeys [2]; 150407 (12:00) (Day 2, 3 hr post)", "value": 0}, {"measurement": "Conjunctival Congestion, hyperemia score", "setting": "Cynomolgus monkeys [2]; 150407 (14:00) (Day 2, 5 hr post)", "value": 0}, {"measurement": "Conjunctival Congestion, hyperemia score", "setting": "Cynomolgus monkeys [2]; 150408 (12:00) (Day 3, 3 hr post)", "value": 0}, {"measurement": "Conjunctival Congestion, hyperemia score", "setting": "Cynomolgus monkeys [2]; 150408 (14:00) (Day 3, 5 hr post)", "value": 0}, {"measurement": "Conjunctival Congestion, hyperemia score", "setting": "Cynomolgus monkeys [2]; 150409 (12:00) (Day 4, 3 hr post)", "value": 0}, {"measurement": "Conjunctival Congestion, hyperemia score", "setting": "Cynomolgus monkeys [2]; 150409 (14:00) (Day 4, 5 hr post)", "value": 0}, {"measurement": "Conjunctival Congestion, hyperemia score", "setting": "Cynomolgus monkeys [2]; 150410 (12:00) (Day 5, 3 hr post)", "value": 0}, {"measurement": "Conjunctival Congestion, hyperemia score", "setting": "Cynomolgus monkeys [2]; 150410 (14:00) (Day 5, 5 hr post)", "value": 0}, {"measurement": "Conjunctival Congestion, hyperemia score", "setting": "Cynomolgus monkeys [2]; 150413 (8:00) (Day 8)", "value": "0.6 and 0 (4×) and 0.5"}, {"measurement": "Conjunctival Congestion, hyperemia score", "setting": "Cynomolgus monkeys [2]; 150420 (8:00) (Day 15)", "value": 0}, {"measurement": "surface hyperemia (summary of Table IV)", "setting": "Cynomolgus monkeys [2]; Cynomolgus monkeys, exception: very slight redness on Day 7 in two monkeys", "value": "almost no surface hyperemia"}]}, {"smiles": "O=C(O)c1cn(C2CC2)c2cc(N3CCNCC3)c(F)cc2c1=O", "note": "[ciprofloxacin]", "values": [{"measurement": "bacterial conjunctivitis", "setting": "patient [3]", "value": "bacterial infection disappears"}]}, {"smiles": "C[C@]12C=CC(=O)C=C1CC[C@@H]1[C@@H]2[C@@H](O)C[C@@]2(C)[C@H]1CC[C@]2(O)C(=O)CO", "note": "[prednisolone]", "values": [{"measurement": "ocular pain and inflammation after cataract surgery", "setting": "patient [4]", "value": "reduces the pain and inflammation"}]}]}
